Test results as given in patent US20140221361A1, “C-19 MODIFIED TRITERPENOIDS WITH HIV MATURATION INHIBITORY ACTIVITY” (priority 2013, published 2014).

test system: recombinant NL4-3 virus (Renilla luciferase in nef, Gag P373S); test: HIV cell culture assay (luciferase reporter, MT-2 cells); format: cell-based, HIV-1; details: MT-2 cells infected for 4-5 days with NLRluc recombinants; luciferase activity; serial dilutions of inhibitor
Protocol: MT-2 cells and 293T cells were obtained from the NIH AIDS Research and Reference Reagent Program. MT-2 cells were propagated in RPMI 1640 media supplemented with 10% heat inactivated fetal bovine serum, […]. The 293T cells were propagated in DMEM media supplemented with 10% heat inactivated fetal bovine serum (FBS), 100 units/ml penicillin G and 100 µg/ml streptomycin. The proviral DNA clone of NL4-3 was obtained from the NIH AIDS Research and Reference Reagent Program. A recombinant NL4-3 virus, in which a section of the nef gene from NL4-3 was replaced with the Renilla luciferase gene, was used as a reference virus. In addition, residue Gag P373 was converted to P373S. Briefly, the recombinant virus was prepared by transfection of the altered proviral clone of NL4-3. Transfections were performed in 293T cells using LipofectAMINE PLUS from Invitrogen (Carlsbad, Calif.), according to manufacturer's instruction. The virus was titered in MT-2 cells using luciferase enzyme activity as a marker. Luciferase was quantitated using the Dual Luciferase kit from Promega (Madison, Wis.), with modifications to the manufacturer's protocol. The diluted Passive Lysis solution was pre-mixed with the re-suspended Luciferase Assay Reagent and the re-suspended Stop & Glo Substrate (2:1:1 ratio). Fifty (50) μL of the mixture was added to each aspirated well on assay plates and luciferase activity was measured immediately on a Wallac TriLux (Perkin-Elmer). Antiviral activities of inhibitors toward the recombinant virus were quantified by measuring luciferase activity in cells infected for 4-5 days with NLRluc recombinants in the presence serial dilutions of the inhibitor.

| Structure (SMILES) | EC50 |
| --- | --- |
| CC(CC(=O)O)[C@@H]1CC[C@]2(C(=O)NCCN(C)C)CC[C@]3(C)[C@H](CC[C@@H]4[C@@]5(C)CC[C@H](c6ccc(C(=O)O)cc6)C(C)(C)[C@@H]5CC[C@]43C)[C@@H]12 (single isomer, unassigned) [Example 21] | 40 nM |
| CC(CO)[C@@H]1CC[C@]2(NCCN3CCS(=O)(=O)CC3)CC[C@]3(C)[C@H](CC[C@@H]4[C@@]5(C)CC=C(c6ccc(C(=O)O)c(F)c6)C(C)(C)[C@@H]5CC[C@]43C)[C@@H]12 (single isomer, unassigned) [Example A4] | 2.34 nM |
| CC(CO)[C@@H]1CC[C@]2(NCCN3CCS(=O)(=O)CC3)CC[C@]3(C)[C@H](CC[C@@H]4[C@@]5(C)CC=C(c6ccc(C(=O)O)c(F)c6)C(C)(C)[C@@H]5CC[C@]43C)[C@@H]12 (single isomer, unassigned) [Example A5] | 6.89 nM |
| CC(CO)[C@@H]1CC[C@]2(NCCN3CCS(=O)(=O)CC3)CC[C@]3(C)[C@H](CC[C@@H]4[C@@]5(C)CC=C(c6ccc(C(=O)O)cc6)C(C)(C)[C@@H]5CC[C@]43C)[C@@H]12 (single isomer, unassigned) [Example B5] | 1.15 nM |
| CC(CO)[C@@H]1CC[C@]2(NCCN3CCS(=O)(=O)CC3)CC[C@]3(C)[C@H](CC[C@@H]4[C@@]5(C)CC=C(c6ccc(C(=O)O)cc6)C(C)(C)[C@@H]5CC[C@]43C)[C@@H]12 (single isomer, unassigned) [Example B6] | 3.75 nM |
| CC(O)(CO)[C@@H]1CC[C@]2(NCCN3CCS(=O)(=O)CC3)CC[C@]3(C)[C@H](CC[C@@H]4[C@@]5(C)CC=C(c6ccc(C(=O)O)cc6)C(C)(C)[C@@H]5CC[C@]43C)[C@@H]12 (single isomer, unassigned) [Example B9] | 2.15 nM |
| CC(O)(CO)[C@@H]1CC[C@]2(NCCN3CCS(=O)(=O)CC3)CC[C@]3(C)[C@H](CC[C@@H]4[C@@]5(C)CC=C(c6ccc(C(=O)O)cc6)C(C)(C)[C@@H]5CC[C@]43C)[C@@H]12 (single isomer, unassigned) [Example B10] | 6.67 nM |
| CC(O)[C@@H]1CC[C@]2(NCCN3CCS(=O)(=O)CC3)CC[C@]3(C)[C@H](CC[C@@H]4[C@@]5(C)CC=C(c6ccc(C(=O)O)cc6)C(C)(C)[C@@H]5CC[C@]43C)[C@@H]12 (single isomer, unassigned) [Example B12] | 3.95 nM |
| CC([C@@H]1CC[C@]2(NCCN3CCS(=O)(=O)CC3)CC[C@]3(C)[C@H](CC[C@@H]4[C@@]5(C)CC=C(c6ccc(C(=O)O)cc6)C(C)(C)[C@@H]5CC[C@]43C)[C@@H]12)N(C)C (single isomer, unassigned) [Example B39] | 4.33 nM |
| CC([C@@H]1CC[C@]2(NCCN3CCS(=O)(=O)CC3)CC[C@]3(C)[C@H](CC[C@@H]4[C@@]5(C)CC=C(c6ccc(C(=O)O)cc6)C(C)(C)[C@@H]5CC[C@]43C)[C@@H]12)N(C)C (single isomer, unassigned) [Example B40] | 40 nM |
| CC(N)[C@@H]1CC[C@]2(NCCN3CCS(=O)(=O)CC3)CC[C@]3(C)[C@H](CC[C@@H]4[C@@]5(C)CC=C(c6ccc(C(=O)O)cc6)C(C)(C)[C@@H]5CC[C@]43C)[C@@H]12 (single isomer, unassigned) [Example B41] | 40 nM |

same assay, conditions: Renilla, NL43, MT-2 cells infected for 4-5 days with NLRluc recombinants; luciferase activity; serial dilutions of inhibitor

| Structure (SMILES) | EC50 |
| --- | --- |
| CC(CC(=O)O)[C@@H]1CC[C@]2(C(=O)NCCN(C)C)CC[C@]3(C)[C@H](CC[C@@H]4[C@@]5(C)CC[C@H](c6ccc(C(=O)O)cc6)C(C)(C)[C@@H]5CC[C@]43C)[C@@H]12 (single isomer, unassigned) [Example 20] | 30 nM |
| COCC(C)(O)[C@@H]1CC[C@]2(NCCN3CCS(=O)(=O)CC3)CC[C@]3(C)[C@H](CC[C@@H]4[C@@]5(C)CC=C(c6ccc(C(=O)O)cc6)C(C)(C)[C@@H]5CC[C@]43C)[C@@H]12 (single isomer, unassigned) [Example B1] | 1.19 nM |
| COCC(C)(OC)[C@@H]1CC[C@]2(NCCN3CCS(=O)(=O)CC3)CC[C@]3(C)[C@H](CC[C@@H]4[C@@]5(C)CC=C(c6ccc(C(=O)O)cc6)C(C)(C)[C@@H]5CC[C@]43C)[C@@H]12 (single isomer, unassigned) [Example B2] | 1.05 nM |
| CC(CF)[C@@H]1CC[C@]2(NCCN3CCS(=O)(=O)CC3)CC[C@]3(C)[C@H](CC[C@@H]4[C@@]5(C)CC=C(c6ccc(C(=O)O)cc6)C(C)(C)[C@@H]5CC[C@]43C)[C@@H]12 (single isomer, unassigned) [Example B8] | 2.51 nM |
| CC(O)[C@@H]1CC[C@]2(NCCN3CCS(=O)(=O)CC3)CC[C@]3(C)[C@H](CC[C@@H]4[C@@]5(C)CC=C(c6ccc(C(=O)O)cc6)C(C)(C)[C@@H]5CC[C@]43C)[C@@H]12 (single isomer, unassigned) [Example B11] | 2.18 nM |
| CC(=NO)[C@@H]1CC[C@]2(NCCN3CCS(=O)(=O)CC3)CC[C@]3(C)[C@H](CC[C@@H]4[C@@]5(C)CC=C(c6ccc(C(=O)O)cc6)C(C)(C)[C@@H]5CC[C@]43C)[C@@H]12 (single isomer, unassigned) [Example B14] | 3.75 nM |
| CC(CN1CCOCC1)[C@@H]1CC[C@]2(NCCN3CCS(=O)(=O)CC3)CC[C@]3(C)[C@H](CC[C@@H]4[C@@]5(C)CC=C(c6ccc(C(=O)O)cc6)C(C)(C)[C@@H]5CC[C@]43C)[C@@H]12 (single isomer, unassigned) [Example B16] | 0.827 nM |
| CC(CN1CCS(=O)(=O)CC1)[C@@H]1CC[C@]2(NCCN3CCS(=O)(=O)CC3)CC[C@]3(C)[C@H](CC[C@@H]4[C@@]5(C)CC=C(c6ccc(C(=O)O)cc6)C(C)(C)[C@@H]5CC[C@]43C)[C@@H]12 (single isomer, unassigned) [Example B18] | 1.57 nM |
| CC(N)[C@@H]1CC[C@]2(NCCN3CCS(=O)(=O)CC3)CC[C@]3(C)[C@H](CC[C@@H]4[C@@]5(C)CC=C(c6ccc(C(=O)O)cc6)C(C)(C)[C@@H]5CC[C@]43C)[C@@H]12 (single isomer, unassigned) [Example B19] | 30 nM |
| C=C(CNCCN1CCOCC1)[C@@H]1CC[C@]2(C(=O)O)CC[C@]3(C)[C@H](CC[C@@H]4[C@@]5(C)CC=C(c6ccc(C(=O)O)cc6)C(C)(C)[C@@H]5CC[C@]43C)[C@@H]12 [Example 1, (1R,3aS,5aR,5bR,7aR,11aS,11bR,13aR,13bS)-9-(4-carboxyphenyl)-5a,5b,8,8,11a-pentamethyl-1-(3-(2-morpholinoethylamino)prop-1-en-2-yl)-2,3,3a,4,5,5a,5b,6,7,7a,8,11,11a,11b,12,13,13a,13b-octadecahydro-1H-cyclopenta[a]chrysene-3a-carboxylic acid] | 40 nM |
| C=C(CNCCO)[C@@H]1CC[C@]2(C(=O)O)CC[C@]3(C)[C@H](CC[C@@H]4[C@@]5(C)CC=C(c6ccc(C(=O)O)cc6)C(C)(C)[C@@H]5CC[C@]43C)[C@@H]12 [Example 2, (1R,3aS,5aR,5bR,7aR,11aS,11bR,13aR,13bS)-9-(4-carboxyphenyl)-1-(3-(2-hydroxyethylamino)prop-1-en-2-yl)-5a,5b,8,8,11a-pentamethyl-2,3,3a,4,5,5a,5b,6,7,7a,8,11,11a,11b,12,13,13a,13b-octadecahydro-1H-cyclopenta[a]chrysene-3a-carboxylic acid] | 140 nM |
